From patent US4103082A, “Aminocyclitol derivatives and process for producing the same” (priority 1975, dated 1978) come the findings set out here.

In the assay the test system is Bacillus subtilis ATCC 6633. Kind of assay: paper disk method, inhibitory zone diameter. Format: cell-based. The conditions noted are these: read-out: inhibitory zone diameter; for zone of inhibition at 7.8 µg/mL: ATCC6633, 7.8 γ/ml; for zone of inhibition at 15.6 µg/mL: ATCC6633, 15.6 γ/ml; for zone of inhibition at 31.2 µg/mL: ATCC6633, 31.2 γ/ml; for zone of inhibition at 62.5 µg/mL: ATCC6633, 62.5 γ/ml; for zone of inhibition at 125 µg/mL: ATCC6633, 125 γ/ml; for zone of inhibition at 250 µg/mL: ATCC6633, 250 γ/ml; for zone of inhibition at 500 µg/mL: ATCC6633, 500 γ/ml; for zone of inhibition at 1000 µg/mL: ATCC6633, 1000 γ/ml; for zone of inhibition at 2000 µg/mL: ATCC6633, 2000 γ/ml.

In the case of `NC[C@H]1O[C@H](O[C@H]2[C@H](O)C[C@H](N)C[C@@H]2N)[C@H](N)[C@@H](O)[C@@H]1O` [6-Deoxyneamine, 6-deoxyneamine], the zone of inhibition at 7.8 µg/mL is 15 mm, the zone of inhibition at 15.6 µg/mL came to 17.6 mm, the zone of inhibition at 31.2 µg/mL was found to be 21.1 mm and the zone of inhibition at 62.5 µg/mL was found to be 22.7 mm. Further, the zone of inhibition at 125 µg/mL turned out to be 25.6 mm, the zone of inhibition at 250 µg/mL was found to be 28.2 mm, the zone of inhibition at 500 µg/mL was determined as 31.2 mm and the zone of inhibition at 1000 µg/mL turned out to be 33.2 mm. Also, the zone of inhibition at 2000 µg/mL is 35.7 mm.

`NC[C@H]1O[C@H](O[C@H]2C[C@@H](O)[C@H](N)C[C@@H]2N)[C@H](N)[C@@H](O)[C@@H]1O` [5-Deoxyneamine, 5-deoxyneamine]: the zone of inhibition at 7.8 µg/mL came out at 11.2 mm, the zone of inhibition at 15.6 µg/mL came out at 13.8 mm, the zone of inhibition at 31.2 µg/mL stood at 15.7 mm and the zone of inhibition at 62.5 µg/mL was 20.5 mm. In addition, the zone of inhibition at 125 µg/mL is 23.2 mm, the zone of inhibition at 250 µg/mL worked out at 25.6 mm, the zone of inhibition at 500 µg/mL was found to be 28.3 mm and the zone of inhibition at 1000 µg/mL amounted to 30.8 mm. Moreover, the zone of inhibition at 2000 µg/mL worked out at 33.4 mm.
